In data set [1] the test system is CAL27 cells. Put plainly: MTT cytotoxic assay, CAL27. In kind it is cell-based. On the procedure: (§1) The cell lines CAL27 (ATCC CRL-2095) and SCC15 (ATCC CRL-1623) and the human immortalized nontumorigenic epithelial esophagus cell line Het-1A (ATCC CRL-2692) were purchased from ATCC (Manassas, VA). CAL27 cells were cultured in Dulbecco's Modified Eagle's Medium (DMEM; Gibco) with 10% of fetal bovine serum (FBS; Gibco). […] Het-1A cells were cultured in Bronchial Epithelial Cell Growth Medium (BEBM) with the additives obtained from Lonza/Clonetics Corporation as a kit (CC-3170), without antibiotics. All cells were maintained at 37°C in a 5% CO2 humidified atmosphere. For Het-1A cells, the culture flasks were precoated with fibronectin (0.01 mg/mL), bovine collagen type I (0.03 mg/mL), and bovine serum albumin (0.01 mg/mL) dissolved in a culture medium and incubated for 24 h before culturing the cells. Cell stocks were prepared and thawed periodically and used in early subcultures (not exceeding 5–10 population doublings). Cell viability was estimated by Trypan blue exclusion staining and was always higher than 97%. Growth curves for each cell line were done using 3-(4,5-dimethylthiazol-2-yl)-2,5-diphenyltetrazolium bromide (MTT). […] SCC15 cells having a mesenchymal- or epithelia-like phenotype were separated by their differential adherence to plastic dish and characterized for the expression of specific markers (see Section 2.7). Cytotoxic activity was determined using the MTT assay. Briefly, cells were seeded in 96-well plates with a confluence of approximately 70% (8 × 10^3 CAL27-cells/well, 4 × 10^3 SCC15-cells/well, and 1.6 × 10^4 Het-1A-cells/well). After cell adherence, the culture medium was removed and peptides at different concentrations (between 100 and 6.25 μg/mL) and times (between 1 and 24 h or 48, 72, and 96 h) were added to the wells in the absence of FBS. Staurosporine (STA) was used as positive control (CAL27: 0.4 μg/mL, SCC15 0.6 μg/mL, and Het-1A 0.6 μg/mL). Phase-contrast photomicrographs of the treated cells were taken (Nikon, Eclipse TS500). After treatment, the medium was replaced with 100 μL of complete culture media with 10% of MTT (5 mg/mL), and cells were incubated for 4–6 h. Finally, 100 μL of DMSO was added in order to lyse the cells and release and solubilize the Formazan crystals. After 10 min of incubation at 37°C, absorbance was measured at 550 nm. […] In some experiments and after treatments, remaining viable cells were treated again with peptides. Cells were first treated with peptides for 24 h and washed carefully and then fresh culture medium was added and cells were further incubated for 72 h.
For orientation: Formazan colour is commonly taken as a measure of viable cells.

The next data set concerns SCC15 cells. The data set can be described thus: MTT cytotoxic assay, SCC15. Type of data set: cell-based. As for the experimental part: as §1
Data set [2] relates to Het-1A cells. The data set can be described thus: MTT cytotoxic assay, Het-1A. Type of data set: cell-based, human. On the procedure: as §1
For data set [3], the system named is normal human erythrocytes. Type of data set: cell-based. On the procedure:
5 mL of heparinized peripheral blood was centrifuged at 1000 g for 7 min. The erythrocyte-rich fraction was resuspended in 10 mL of PBS and washed twice by centrifugation at 1000 g for 7 min. […] PBS was used as negative control, while Tween-20 (20% v/v) in PBS was used as positive controls. The 96-well plates were centrifuged, the supernatants were collected, and the absorbance was determined at 540 nm.

Data set [4] deals with CAL27 cells. Put plainly: Apoptotic/necrotic assay (Annexin V-FITC/PI flow cytometry), CAL27. The note with it: CAL27, 1 h treatment. In general terms: In flow cytometry, cells or beads pass a laser one at a time.
Protocol: (§2) 1 × 10^5 CAL27 and Het-1A cells were treated with peptides for 1 h at 37°C and then labeled with Annexin V-FITC/PI, using the Dead Cell Apoptosis Kit for flow cytometry (Thermo Fisher Scientific). As a control for necrosis, the cells were treated for 5 min with 0.2% T-X100.
Data set [5] has as its system Het-1A cells. The data set can be described thus: Apoptotic/necrotic assay (Annexin V-FITC/PI flow cytometry), Het-1A. The note with it: 1 h treatment.
Protocol: as §2

Where a SMILES comes first, the peptide text is derived from it. Bridges are numbered along the chain shown (N, C = ends). Roman numbers before positions name the chains, in order. Where no end group is shown, it is not given here. [ ]: non-standard residue; d: D form. Ahx = NCCCCCC(=O)O Some results are limits rather than exact numbers.

Take “RWQWRWQWR-NH2 (C-terminus assumed) [LfcinB-Pal]”: the IC50 (usually the concentration needed to halve the response being measured) in the data set with CAL27 cells [1] (1 h) is 22.8 ± 1.12 µM; in the data set with CAL27 cells [1] (3 h), 22.6 ± 1.02 µM; in the data set on CAL27 cells [1] (24 h) it was 21.5 ± 1.05 µM; with SCC15 cells (1 h), more than 67.3 µM; in the data set with SCC15 cells (3 h), more than 67.3 µM; in the data set with SCC15 cells (24 h), more than 67.3 µM. Besides, the IC50 in the data set with Het-1A cells [2] (1 h) was more than 67.3 µM; in the data set with Het-1A cells [2] (3 h) it was 62.2 ± 1.56 µM; with Het-1A cells [2] (24 h) it was more than 67.3 µM. The “cytotoxic effect (in words)” value in the data set with CAL27 cells [1] (CAL27, 24 h, MTT, up to 100 μg/mL) was “clearly improved the cytotoxic effect”; with SCC15 cells (SCC15, 24 h, MTT, up to 100 μg/mL), “only slightly”; in the data set with Het-1A cells [2] (Het-1A, 24 h, MTT, at 40 μM), “low”.

For `CC[C@H](C)[C@H](NC(=O)[C@H](CO)NC(=O)[C@@H]1CCCN1C(=O)[C@H](C)NC(=O)CNC(=O)[C@H](CC(C)C)NC(=O)[C@H](CCCCN)NC(=O)[C@H](CCCCN)NC(=O)[C@H](CCSC)NC(=O)[C@H](CCCNC(=N)N)NC(=O)[C@H](Cc1c[nH]c2ccccc12)NC(=O)[C@H](CCC(N)=O)NC(=O)[C@H](Cc1c[nH]c2ccccc12)NC(=O)[C@H](CCCNC(=N)N)NC(=O)[C@H](CCCNC(=N)N)NC(=O)[C@H](CS)NC(=O)[C@H](CCCCN)NC(=O)[C@@H](N)Cc1ccccc1)C(=O)N[C@H](C(=O)N[C@@H](CS)C(=O)N[C@H](C(=O)N[C@@H](CCCNC(=N)N)C(=O)N[C@@H](CCCNC(=N)N)C(=O)N[C@@H](C)C(=O)N[C@@H](Cc1ccccc1)C(N)=O)C(C)C)[C@@H](C)O` [LfcinB25, reference compound], the cytotoxicity in the data set with CAL27 cells [1] (CAL27, 24 h, highest concentration tested 100 μg/mL (LfB 1.25 μM, LfcinB25 32 μM, LfcinB(20–25)4 22.25 μM), MTT) is recorded as 64.4%; in the data set with SCC15 cells (SCC15, 24 h, highest concentration tested 100 μg/mL (LfB 1.25 μM, LfcinB25 32 μM, LfcinB(20–25)4 22.25 μM), MTT), 60%; in the data set on Het-1A cells [2] (Het-1A, 24 h, highest concentration tested 100 μg/mL (LfB 1.25 μM, LfcinB25 32 μM, LfcinB(20–25)4 22.25 μM), MTT), 60.5%.

For the compound `N=C(N)NCCC[C@H](NC(=O)[C@H](Cc1c[nH]c2ccccc12)NC(=O)[C@H](CCC(N)=O)NC(=O)[C@H](Cc1c[nH]c2ccccc12)NC(=O)[C@H](CCCNC(=N)N)NC(=O)[C@@H](N)CCCNC(=N)N)C(=O)NCCCC[C@H](NC(=O)[C@H](CCCNC(=N)N)NC(=O)[C@H](Cc1c[nH]c2ccccc12)NC(=O)[C@H](CCC(N)=O)NC(=O)[C@H](Cc1c[nH]c2ccccc12)NC(=O)[C@H](CCCNC(=N)N)NC(=O)[C@@H](N)CCCNC(=N)N)C(=O)NCCCCCC(=O)N[C@@H](CSSC[C@H](NC(=O)CCCCCNC(=O)[C@H](CCCCNC(=O)[C@H](CCCNC(=N)N)NC(=O)[C@H](Cc1c[nH]c2ccccc12)NC(=O)[C@H](CCC(N)=O)NC(=O)[C@H](Cc1c[nH]c2ccccc12)NC(=O)[C@H](CCCNC(=N)N)NC(=O)[C@@H](N)CCCNC(=N)N)NC(=O)[C@H](CCCNC(=N)N)NC(=O)[C@H](Cc1c[nH]c2ccccc12)NC(=O)[C@H](CCC(N)=O)NC(=O)[C@H](Cc1c[nH]c2ccccc12)NC(=O)[C@H](CCCNC(=N)N)NC(=O)[C@@H](N)CCCNC(=N)N)C(N)=O)C(N)=O` [LfcinB(20–25)4] (I: H-RRWQWRK[Ahx]C-NH2 / II: H-RRWQWRK[Ahx]C-NH2 / III: H-RRWQWR / IV: H-RRWQWR; amide I:7-III:C, II:7-IV:C; disulfide I:9-II:9; N-terminus and C-terminus assumed), the “cytotoxicity of a second addition of the peptide (in words)” value with CAL27 cells [1] is recorded as “reduced to the same extent as the one obtained after the first treatment”. The IC50 in the data set with CAL27 cells [1] (1 h) worked out at 16 ± 1.36 µM; in the data set with CAL27 cells [1] (3 h), 17.4 ± 1.77 µM; in the data set with CAL27 cells [1] (24 h), 9.02 ± 1.38 µM; in the data set on SCC15 cells (1 h), 13.6 ± 1.06 µM; in the data set with SCC15 cells (3 h), 12.6 ± 1.06 µM; in the data set on SCC15 cells (24 h), 9.05 ± 1.07 µM. Moreover, the IC50 with Het-1A cells [2] (3 h) worked out at 18.8 ± 1.11 µM; with Het-1A cells [2] (24 h) it was 17.4 ± 1.11 µM. Further, the “concentration at which lysis of erythrocytes was shown” value in data set [3] was found to be 500 µg/mL. In addition, the “apoptotic cell population (PI−/Annexin+), in words” value in the data set on CAL27 cells [4] and with Het-1A cells [5] was “not detected” throughout.

As for “RRWQWR-NH2 (C-terminus assumed) [LfcinB(20–25)]”, the IC50 in the data set with CAL27 cells [1] (1 h), in the data set on CAL27 cells [1] (3 h), with CAL27 cells [1] (24 h), in the data set on SCC15 cells (1 h), in the data set with SCC15 cells (3 h) and in the data set on SCC15 cells (24 h) was more than 101 µM throughout. Further, the IC50 with Het-1A cells [2] (1 h), in the data set with Het-1A cells [2] (3 h) and in the data set on Het-1A cells [2] (24 h) was more than 101 µM each time.

Values taken from paper PMC4644816, “A Tetrameric Peptide Derived from Bovine Lactoferricin Exhibits Specific Cytotoxic Effects against Oral Squamous-Cell Carcinoma Cell Lines” (BioMed Research International, 2015).
